Paper PMC13422867, “An orally available PfPKG inhibitor blocks Plasmodium’s infection of the liver” (PLOS Pathogens, 2026)

Key:
[1] = tested on: P. falciparum K1; assay: Asexual blood stage growth inhibition, SYBR Green I, 72 h; type: cell-based; conditions: Plasmodium falciparum, mean (standard error) of 3 biological replicates
Procedure: (§1) Asexual blood stage P. falciparum strains, including 3D7 and drug-resistant field isolates, were cultured using standard conditions in RPMI 1640 with 0.5% Albumax as described previously. EC₅₀ values were determined using a SYBR Green I fluorescence assay after 72 h of compound exposure. EC50 values were derived by nonlinear regression in GraphPad Prism version 10.

[2] = tested on: P. falciparum 7G8; assay: as above; type: cell-based; conditions: Plasmodium falciparum, mean (standard error) of 3 biological replicates
Procedure: as §1

[3] = tested on: P. falciparum 3D7; assay: as above; type: cell-based; conditions: Plasmodium falciparum, mean (standard error) of 3 biological replicates
Procedure: as §1

[4] = tested on: P. falciparum TM90_C2B; assay: as above; type: cell-based; conditions: Plasmodium falciparum, mean (standard error) of 3 biological replicates
Procedure: as §1

[5] = target: T1, CIT (Homo sapiens, UniProt O14578); assay: KdElect binding affinity assay; conditions: read-out: CIT Experimental Kd
T1 construct: purchased Eurofins (DiscoverX)
Procedure: (§2) Off-target kinase inhibition was assessed using the DiscoverX scanMAX (Eurofins) panel at 1 µM compound concentration. Binding affinities of CIT, ROCK1 and ROCK2 were evaluated using the KdElect assay (Eurofins).

[6] = target: T2, ROCK2 (Homo sapiens, UniProt O75116); assay: KdElect binding affinity assay; conditions: read-out: ROCK2 Experimental Kd
T2 construct: purchased Eurofins (DiscoverX)
Procedure: as §2

[7] = tested on: P. cynomolgi hypnozoite; assay: Hypnozoite formation in primary simian hepatocytes, high-content imaging; type: cell-based, Plasmodium cynomolgi; conditions: Plasmodium cynomolgi, Hepatocyte
Procedure: Liver stage antimalarial activity was evaluated using sporozoites from P. falciparum (NF54 strain) and P. cynomolgi bastianellii (B strain). P. falciparum-infected Anopheles stephensi mosquitoes were reared at WRAIR, while P. cynomolgi-infected Anopheles dirus mosquitoes were obtained from the Armed Forces Research Institute of Medical Sciences (AFRIMS), Thailand. Sporozoites were isolated by dissecting salivary glands under sterile conditions, followed by gentle mechanical disruption. Freshly isolated sporozoites were immediately used for hepatocyte infection.
Primary cryopreserved hepatocytes were selected based on host-parasite compatibility: primary simian hepatocytes (lot OQB) for P. cynomolgi and human hepatocytes (lot BGW) for P. falciparum (BioIVT Inc., Baltimore, MD, USA). Cells were thawed according to the manufacturer’s protocol and seeded into 384-well collagen-coated assay plates (Greiner Bio-One, Monroe, NC, USA) using InVitroGro CP plating medium (BioIVT). Seeding densities were optimized for uniform monolayer formation, and hepatocytes were allowed to adhere for 24–48 hours before infection. Sporozoites were added at a 1:1.1 hepatocyte-to-sporozoite ratio within 48 hours post-seeding. Automated robotic systems were used for media changes and compound additions to ensure assay consistency and minimize variability associated with manual pipetting.
Test compounds (PfPKG inhibitors) and assay drug controls (KDU-691 and tafenoquine) were solubilized in DMSO or PBS and serially diluted into 8- or 12-point, 2- or 3-fold series, achieving final assay concentrations ranging from 20 µM to 0.019 µM. Compounds were introduced using a calibrated pin tool controlled by robotic arms (V&P Scientific), ensuring a 1:1000 dilution into assay wells. Media were replenished daily with fresh drug-containing HCM. […]
Cells were fixed using 4% paraformaldehyde for 20 minutes at room temperature, followed by three PBS washes, and stored at 4°C until further processing. Parasite detection was performed using species-specific primary antibodies, with P. cynomolgi parasites labeled using a mouse monoclonal anti-Plasmodium GAPDH antibody (1.6 μg/mL, European Malaria Reagent Repository) and P. falciparum parasites detected using a rabbit polyclonal anti-PfHSP70 antibody (1:70 dilution, LS Bio, USA). […]
High-content imaging was performed using the Operetta CLS system (Revvity) and image analysis was performed with Harmony software version 4.9 (Revvity, Waltham, MA, USA). Images were acquired at 10x or 20x magnification using DAPI and TRITC fluorescence channels. Following the established protocol, parasites were classified as hypnozoites or schizonts based on fluorescence intensity (mean and maximum), morphological features (cell roundness and size), and segmentation criteria. […]

[8] = tested on: PfPKG; conditions: cited from earlier work
[9] = tested on: P. berghei sporozoites (PbLuc-GFP); assay: In vivo chemoprotective efficacy against sporozoite liver infection; parameters: species or system Plasmodium berghei in mice; conditions: 10 mg/kg x 3; for Prepatent period mean ± sd: blood stages by flow cytometry
Procedure: In the first experiment, mice were administered three doses, intravenously (IV) or orally (PO), of compound (10 mg/kg) - two prior to sporozoite inoculation to block sporozoite invasion of hepatocytes and the third at 36 hpi to prevent egress of liver stages (Fig 3A). In vivo bioluminescent imaging (IVIS) of mice was utilized to detect and quantify relative parasitemia in the liver and flow cytometry was used to detect the appearance of blood stage parasites. Vehicle-treated mice were used as a negative control.
In vivo chemoprotective efficacy was evaluated using luciferase-expressing P. berghei ANKA sporozoites. […] Liver stage parasite burden was measured 42–48 h p.i. by bioluminescence imaging (IVIS Spectrum). Photon flux from the liver region was quantified using Living Image software. All animal procedures were approved by the Rutgers Institutional Animal Care and Use Committee (IACUC).

[10] = tested on: hERG; conditions: in vitro; cited from earlier work
[11] = target: T1, CIT; assay: DiscoverX scanMAX competition binding at 1 µM; conditions: 1 μM compound
Procedure: (§3) A major issue affecting the further development of RUPB-61 is its human-kinome selectivity. To identify its significant off-target liabilities, we quantified its binding affinity for 400 unique human kinases (S4 Fig). The screen consists of binding competitions between the test compound and control ligands for each of the target human kinases.
as §2

[12] = target: T3, ROCK1 (Homo sapiens, UniProt Q13464); assay: DiscoverX scanMAX competition binding at 1 µM; conditions: 1 μM compound
T3 construct: purchased Eurofins (DiscoverX)
Procedure: as §3, §2

[13] = target: T2, ROCK2; assay: DiscoverX scanMAX competition binding at 1 µM; conditions: 1 μM compound
Procedure: as §3, §2

T1 sequence (O14578 whole entry): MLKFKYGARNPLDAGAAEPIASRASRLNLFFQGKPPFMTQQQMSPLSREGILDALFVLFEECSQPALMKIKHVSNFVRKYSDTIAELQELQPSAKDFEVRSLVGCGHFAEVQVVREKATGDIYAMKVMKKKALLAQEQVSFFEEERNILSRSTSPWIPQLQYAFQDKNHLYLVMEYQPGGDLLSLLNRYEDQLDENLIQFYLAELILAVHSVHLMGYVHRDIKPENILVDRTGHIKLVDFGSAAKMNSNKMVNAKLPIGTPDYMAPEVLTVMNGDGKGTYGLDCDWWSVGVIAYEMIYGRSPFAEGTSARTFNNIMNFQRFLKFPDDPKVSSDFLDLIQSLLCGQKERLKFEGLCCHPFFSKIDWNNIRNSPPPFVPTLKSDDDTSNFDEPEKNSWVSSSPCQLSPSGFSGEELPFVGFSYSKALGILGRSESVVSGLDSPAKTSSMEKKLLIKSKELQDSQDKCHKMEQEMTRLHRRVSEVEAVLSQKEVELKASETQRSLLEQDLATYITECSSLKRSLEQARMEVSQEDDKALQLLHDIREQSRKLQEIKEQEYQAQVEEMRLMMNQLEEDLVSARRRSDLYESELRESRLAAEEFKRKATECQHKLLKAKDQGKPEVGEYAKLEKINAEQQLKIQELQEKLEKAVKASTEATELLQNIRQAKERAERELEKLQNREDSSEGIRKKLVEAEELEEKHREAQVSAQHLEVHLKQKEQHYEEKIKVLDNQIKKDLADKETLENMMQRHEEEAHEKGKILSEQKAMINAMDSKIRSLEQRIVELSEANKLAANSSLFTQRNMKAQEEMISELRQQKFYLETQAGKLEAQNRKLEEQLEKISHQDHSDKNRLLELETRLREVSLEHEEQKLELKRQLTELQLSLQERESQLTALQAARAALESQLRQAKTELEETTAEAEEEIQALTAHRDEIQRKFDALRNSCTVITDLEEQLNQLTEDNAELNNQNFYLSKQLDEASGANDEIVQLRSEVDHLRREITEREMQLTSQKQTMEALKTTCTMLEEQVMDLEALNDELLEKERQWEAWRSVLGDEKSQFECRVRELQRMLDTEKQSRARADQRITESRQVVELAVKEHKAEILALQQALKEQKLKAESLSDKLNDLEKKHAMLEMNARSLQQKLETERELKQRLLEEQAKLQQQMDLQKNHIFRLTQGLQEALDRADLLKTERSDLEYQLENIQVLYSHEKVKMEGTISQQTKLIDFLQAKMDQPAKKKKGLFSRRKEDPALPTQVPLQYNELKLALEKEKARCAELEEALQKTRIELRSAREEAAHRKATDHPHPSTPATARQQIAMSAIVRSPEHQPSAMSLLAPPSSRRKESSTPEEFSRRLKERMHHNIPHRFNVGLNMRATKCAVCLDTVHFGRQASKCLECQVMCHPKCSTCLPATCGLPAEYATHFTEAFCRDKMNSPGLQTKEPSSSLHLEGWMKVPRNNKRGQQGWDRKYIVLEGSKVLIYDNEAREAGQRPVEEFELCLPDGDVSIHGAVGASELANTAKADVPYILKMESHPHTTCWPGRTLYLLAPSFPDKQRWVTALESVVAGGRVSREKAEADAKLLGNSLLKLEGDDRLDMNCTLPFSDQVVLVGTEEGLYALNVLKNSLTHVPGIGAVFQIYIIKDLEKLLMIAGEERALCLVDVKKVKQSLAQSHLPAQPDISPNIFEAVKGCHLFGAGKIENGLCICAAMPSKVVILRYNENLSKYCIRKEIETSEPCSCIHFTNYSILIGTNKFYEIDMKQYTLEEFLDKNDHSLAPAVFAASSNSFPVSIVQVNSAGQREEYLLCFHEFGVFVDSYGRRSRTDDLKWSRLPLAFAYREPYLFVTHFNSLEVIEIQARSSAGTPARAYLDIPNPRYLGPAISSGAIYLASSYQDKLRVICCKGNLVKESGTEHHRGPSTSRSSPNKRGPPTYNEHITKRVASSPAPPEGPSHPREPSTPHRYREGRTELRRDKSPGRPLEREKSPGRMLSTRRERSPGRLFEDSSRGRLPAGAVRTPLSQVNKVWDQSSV
T2 sequence (O75116 whole entry): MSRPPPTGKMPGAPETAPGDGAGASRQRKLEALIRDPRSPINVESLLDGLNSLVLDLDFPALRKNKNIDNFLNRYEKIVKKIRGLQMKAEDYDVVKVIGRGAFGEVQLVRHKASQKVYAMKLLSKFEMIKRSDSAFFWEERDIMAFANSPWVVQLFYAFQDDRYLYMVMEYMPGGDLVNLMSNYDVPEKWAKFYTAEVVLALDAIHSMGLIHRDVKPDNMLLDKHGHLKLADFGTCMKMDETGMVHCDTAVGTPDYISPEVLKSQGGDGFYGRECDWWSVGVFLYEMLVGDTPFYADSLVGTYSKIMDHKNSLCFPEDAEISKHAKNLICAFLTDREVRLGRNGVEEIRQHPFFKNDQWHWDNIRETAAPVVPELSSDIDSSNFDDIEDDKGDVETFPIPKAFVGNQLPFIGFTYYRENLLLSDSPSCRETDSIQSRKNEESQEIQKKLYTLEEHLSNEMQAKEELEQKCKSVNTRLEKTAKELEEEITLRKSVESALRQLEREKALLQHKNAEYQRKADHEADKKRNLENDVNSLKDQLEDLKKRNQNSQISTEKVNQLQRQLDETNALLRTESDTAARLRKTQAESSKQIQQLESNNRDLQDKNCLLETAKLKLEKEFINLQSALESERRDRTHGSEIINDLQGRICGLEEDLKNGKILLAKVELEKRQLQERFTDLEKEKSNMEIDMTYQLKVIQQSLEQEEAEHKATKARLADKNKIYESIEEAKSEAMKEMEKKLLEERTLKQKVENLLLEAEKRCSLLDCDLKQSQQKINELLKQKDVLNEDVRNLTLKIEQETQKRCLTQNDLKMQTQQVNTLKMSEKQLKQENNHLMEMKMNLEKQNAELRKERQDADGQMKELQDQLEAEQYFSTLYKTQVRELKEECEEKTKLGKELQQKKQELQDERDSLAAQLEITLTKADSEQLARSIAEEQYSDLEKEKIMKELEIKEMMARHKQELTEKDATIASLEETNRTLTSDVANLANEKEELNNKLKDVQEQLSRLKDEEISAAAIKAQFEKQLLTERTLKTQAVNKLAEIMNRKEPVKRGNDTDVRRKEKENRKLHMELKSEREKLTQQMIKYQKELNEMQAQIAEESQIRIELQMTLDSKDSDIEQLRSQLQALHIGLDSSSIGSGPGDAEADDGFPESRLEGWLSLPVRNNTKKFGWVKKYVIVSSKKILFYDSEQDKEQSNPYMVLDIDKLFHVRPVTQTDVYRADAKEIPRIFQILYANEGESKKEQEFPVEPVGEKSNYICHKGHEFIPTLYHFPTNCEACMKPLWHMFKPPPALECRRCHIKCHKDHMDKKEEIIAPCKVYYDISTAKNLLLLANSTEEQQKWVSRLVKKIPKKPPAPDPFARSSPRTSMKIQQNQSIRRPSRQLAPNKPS
T3 sequence (Q13464 whole entry): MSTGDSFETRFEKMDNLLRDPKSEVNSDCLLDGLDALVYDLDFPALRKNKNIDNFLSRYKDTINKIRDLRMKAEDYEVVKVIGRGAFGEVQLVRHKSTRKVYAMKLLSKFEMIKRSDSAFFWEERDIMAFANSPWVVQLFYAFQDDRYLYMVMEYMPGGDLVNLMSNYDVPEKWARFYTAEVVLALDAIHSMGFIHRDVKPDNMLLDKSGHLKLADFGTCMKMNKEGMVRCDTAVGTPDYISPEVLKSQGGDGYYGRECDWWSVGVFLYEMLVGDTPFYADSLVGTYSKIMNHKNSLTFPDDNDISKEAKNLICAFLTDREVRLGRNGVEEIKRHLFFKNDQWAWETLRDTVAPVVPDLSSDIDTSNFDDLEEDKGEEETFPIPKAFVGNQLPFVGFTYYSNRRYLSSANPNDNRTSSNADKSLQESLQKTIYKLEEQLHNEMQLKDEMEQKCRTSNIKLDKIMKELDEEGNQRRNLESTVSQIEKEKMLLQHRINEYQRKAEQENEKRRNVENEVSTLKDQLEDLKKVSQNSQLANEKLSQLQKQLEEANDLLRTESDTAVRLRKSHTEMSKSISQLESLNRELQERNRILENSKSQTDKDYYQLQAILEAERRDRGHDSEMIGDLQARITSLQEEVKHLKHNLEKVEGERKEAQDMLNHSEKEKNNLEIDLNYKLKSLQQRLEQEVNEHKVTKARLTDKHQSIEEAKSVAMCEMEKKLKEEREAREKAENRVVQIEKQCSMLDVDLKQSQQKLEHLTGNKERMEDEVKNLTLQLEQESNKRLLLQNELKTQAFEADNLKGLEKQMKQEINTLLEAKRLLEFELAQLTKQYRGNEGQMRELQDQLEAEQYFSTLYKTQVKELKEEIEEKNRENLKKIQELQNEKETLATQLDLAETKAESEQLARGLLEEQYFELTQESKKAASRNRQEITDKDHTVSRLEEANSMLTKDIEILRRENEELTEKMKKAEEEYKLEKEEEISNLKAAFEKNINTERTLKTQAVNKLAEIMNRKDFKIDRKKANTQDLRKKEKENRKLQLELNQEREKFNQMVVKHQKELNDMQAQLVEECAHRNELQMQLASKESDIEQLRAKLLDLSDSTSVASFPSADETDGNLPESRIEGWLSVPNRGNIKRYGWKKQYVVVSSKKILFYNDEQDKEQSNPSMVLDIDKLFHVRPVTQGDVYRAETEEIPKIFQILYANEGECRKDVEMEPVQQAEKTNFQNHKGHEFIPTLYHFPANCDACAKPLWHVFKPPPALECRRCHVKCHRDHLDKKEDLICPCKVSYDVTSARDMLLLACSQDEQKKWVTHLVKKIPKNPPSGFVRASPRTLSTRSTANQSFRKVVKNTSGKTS

## C[C@@H]1CN(C)CC[C@@H]1c1cc(-c2ccncc2)c(-c2ccc(F)cc2)[nH]1.Cl.Cl [RUPB-61, 4-{5-[(3S,4S)-1,3-Dimethylpiperidin-4-yl]-2-(4-fluorophenyl)-1H-pyrrol-3-yl}pyridine Dihydrochloride]
[1]
  IC50: 42 nM
[2]
  IC50: 29 nM
[3]
  IC50: 50 nM
[4]
  IC50: 139 nM
[5]
  Kd: 5.2 nM
[6]
  Kd: 13 nM
[7]
  IC50: 190 nM
[8]
  IC50 against PfPKG variants, RUPB-60 compared with RUPB-61: similar
[9]; IV or PO, 10 mice, bioluminescent imaging
  mice showing liver parasitemia as late as 144 hpi: none
[9]; IV or oral
  mice displaying blood stage parasites in the 3 week observation period: none
[9]; Intravenous
  No. of mice patent by D21/ No. of mice inoculated: 0/5
  Prepatent period mean ± sd: negative
[9]; Oral
  No. of mice patent by D21/ No. of mice inoculated: 0/5
  Prepatent period mean ± sd: negative
[10]
  cardiovascular risk as judged by hERG inhibition: low preliminary cardiovascular risks
[11]
  displacement of control ligand for CIT: > 99%
[12]
  displacement of control ligand for ROCK1: > 99%
[13]
  displacement of control ligand for ROCK2: > 99%
